Results reported in ChEMBL document CHEMBL2021885, “Triphenylbutanamines: kinesin spindle protein inhibitors with in vivo antitumor activity” (J Med Chem, 2012).
Active and inactive are the calls of the source. No cut-off for these calls is given here.

Columns and labels:
[1] = target: T1, Kinesin heavy chain isoform 5A (Homo sapiens) (UniProt Q12840); test: Inhibition of Kif5a ATPase activity
T1 sequence (whole entry): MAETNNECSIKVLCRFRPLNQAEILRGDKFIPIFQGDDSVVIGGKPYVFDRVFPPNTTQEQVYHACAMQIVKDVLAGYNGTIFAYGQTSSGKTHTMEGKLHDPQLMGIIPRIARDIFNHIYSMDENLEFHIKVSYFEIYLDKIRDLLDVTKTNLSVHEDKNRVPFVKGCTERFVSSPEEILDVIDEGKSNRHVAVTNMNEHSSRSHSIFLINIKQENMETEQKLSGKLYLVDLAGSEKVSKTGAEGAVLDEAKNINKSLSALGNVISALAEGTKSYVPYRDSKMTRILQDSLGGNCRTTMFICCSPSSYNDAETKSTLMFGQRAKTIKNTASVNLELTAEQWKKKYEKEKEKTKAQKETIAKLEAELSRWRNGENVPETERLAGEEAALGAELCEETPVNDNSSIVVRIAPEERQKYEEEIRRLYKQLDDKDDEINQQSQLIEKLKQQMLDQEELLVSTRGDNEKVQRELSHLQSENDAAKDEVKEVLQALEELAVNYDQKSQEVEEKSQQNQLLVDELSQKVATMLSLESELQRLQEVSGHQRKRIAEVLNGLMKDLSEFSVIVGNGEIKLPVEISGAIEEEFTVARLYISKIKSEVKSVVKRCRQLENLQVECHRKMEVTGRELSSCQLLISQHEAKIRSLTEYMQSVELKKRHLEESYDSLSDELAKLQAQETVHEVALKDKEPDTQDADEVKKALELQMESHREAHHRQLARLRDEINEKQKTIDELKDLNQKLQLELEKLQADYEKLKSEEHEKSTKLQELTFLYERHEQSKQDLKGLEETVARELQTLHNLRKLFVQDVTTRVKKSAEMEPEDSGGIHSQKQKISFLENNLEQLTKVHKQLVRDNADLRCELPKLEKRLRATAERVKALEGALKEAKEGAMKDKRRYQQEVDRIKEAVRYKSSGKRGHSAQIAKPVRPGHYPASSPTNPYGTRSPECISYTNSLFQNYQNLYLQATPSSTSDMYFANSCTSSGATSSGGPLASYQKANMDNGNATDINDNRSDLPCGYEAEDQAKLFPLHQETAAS

[2] = Distribution coefficient, log D of the compound at pH 7.4; format: physicochemical; conditions: octanol/water, read-out: logD

Cc1cccc(C(CCC(N)C(=O)O)(c2ccccc2)c2ccccc2)c1 (racemic)
inhibition [1]: inactive | logD [2]: 2.45
